Results taken from publication PMC8429728, “TNK1 is a ubiquitin-binding and 14-3-3-regulated kinase that can be targeted to block tumor growth” (Nature Communications, 2021).
Like-named read-outs stand apart in the source and are kept apart here.

Key:
Experiment in all cases: biochemical
Design in all cases: Reaction Biology 371-kinase panel at Km ATP, per cent enzyme activity relative to DMSO, single dose in duplicate
CDK6/cyclin D3 = CDK6/cyclin D3 (Homo sapiens, UniProt Q00534); details: duplicate measurements, Km ATP
Sequence of CDK6/cyclin D3 (Q00534 whole entry): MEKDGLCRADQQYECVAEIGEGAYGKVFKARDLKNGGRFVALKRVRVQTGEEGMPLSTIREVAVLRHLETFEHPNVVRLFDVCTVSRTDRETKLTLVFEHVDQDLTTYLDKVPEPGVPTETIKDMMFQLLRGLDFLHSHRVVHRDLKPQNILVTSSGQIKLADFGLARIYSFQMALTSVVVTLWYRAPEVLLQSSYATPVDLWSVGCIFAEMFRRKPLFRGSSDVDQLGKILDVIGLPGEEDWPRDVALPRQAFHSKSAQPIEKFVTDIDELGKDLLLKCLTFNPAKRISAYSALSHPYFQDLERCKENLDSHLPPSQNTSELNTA
Sequence of CDK6/cyclin D3 (P30281 whole entry partner): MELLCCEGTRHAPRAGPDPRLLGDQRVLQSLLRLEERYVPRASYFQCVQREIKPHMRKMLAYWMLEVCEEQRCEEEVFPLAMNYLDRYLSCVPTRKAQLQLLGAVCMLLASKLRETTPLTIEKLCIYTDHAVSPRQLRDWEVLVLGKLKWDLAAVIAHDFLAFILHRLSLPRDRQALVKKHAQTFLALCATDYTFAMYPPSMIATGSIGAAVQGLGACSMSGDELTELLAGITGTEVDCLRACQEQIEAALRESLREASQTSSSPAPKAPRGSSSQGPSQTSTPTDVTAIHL
Outline: (§1)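 Percent kinase activity relative to vehicle (DMSO) is reported for a 371-kinase in vitro panel at 300 nM compound; IC50 values derive from variable-slope sigmoidal fits with the lower plateau fixed at 0.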

CDK2/cyclin E2 = CDK2/cyclin E2 (Homo sapiens, UniProt P24941); details: duplicate measurements, Km ATP
Outline: as §1

CAMK2g = CAMK2g (Homo sapiens, UniProt Q13555); details: duplicate measurements, Km ATP
Sequence of CAMK2g (Q13555 whole entry): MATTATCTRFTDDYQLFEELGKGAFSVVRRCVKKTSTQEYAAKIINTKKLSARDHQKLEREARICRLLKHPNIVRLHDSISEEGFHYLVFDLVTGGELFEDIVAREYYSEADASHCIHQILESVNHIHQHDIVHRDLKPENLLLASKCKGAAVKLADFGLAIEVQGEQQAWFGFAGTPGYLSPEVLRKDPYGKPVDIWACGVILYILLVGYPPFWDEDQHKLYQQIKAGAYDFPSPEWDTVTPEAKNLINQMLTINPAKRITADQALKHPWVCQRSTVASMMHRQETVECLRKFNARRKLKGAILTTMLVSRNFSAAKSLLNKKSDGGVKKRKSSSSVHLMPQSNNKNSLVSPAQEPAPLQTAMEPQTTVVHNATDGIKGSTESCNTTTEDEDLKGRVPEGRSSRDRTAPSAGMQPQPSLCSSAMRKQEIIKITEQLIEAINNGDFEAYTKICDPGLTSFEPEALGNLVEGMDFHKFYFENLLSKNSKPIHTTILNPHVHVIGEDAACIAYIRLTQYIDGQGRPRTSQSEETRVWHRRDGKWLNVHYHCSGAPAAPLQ
Outline: as §1

MINK/MINK1 = MINK/MINK1 (Homo sapiens, UniProt Q8N4C8); details: duplicate measurements, Km ATP
Outline: as §1

DAPK1 = DAPK1 (Homo sapiens, UniProt P53355); details: duplicate measurements, Km ATP
Outline: as §1

IGF1R = IGF1R (Homo sapiens, UniProt P08069); details: duplicate measurements, Km ATP
Outline: as §1

ASK1/MAP3K5 = ASK1/MAP3K5 (Homo sapiens, UniProt Q99683); details: duplicate measurements, Km ATP
Sequence of ASK1/MAP3K5 (Q99683 whole entry): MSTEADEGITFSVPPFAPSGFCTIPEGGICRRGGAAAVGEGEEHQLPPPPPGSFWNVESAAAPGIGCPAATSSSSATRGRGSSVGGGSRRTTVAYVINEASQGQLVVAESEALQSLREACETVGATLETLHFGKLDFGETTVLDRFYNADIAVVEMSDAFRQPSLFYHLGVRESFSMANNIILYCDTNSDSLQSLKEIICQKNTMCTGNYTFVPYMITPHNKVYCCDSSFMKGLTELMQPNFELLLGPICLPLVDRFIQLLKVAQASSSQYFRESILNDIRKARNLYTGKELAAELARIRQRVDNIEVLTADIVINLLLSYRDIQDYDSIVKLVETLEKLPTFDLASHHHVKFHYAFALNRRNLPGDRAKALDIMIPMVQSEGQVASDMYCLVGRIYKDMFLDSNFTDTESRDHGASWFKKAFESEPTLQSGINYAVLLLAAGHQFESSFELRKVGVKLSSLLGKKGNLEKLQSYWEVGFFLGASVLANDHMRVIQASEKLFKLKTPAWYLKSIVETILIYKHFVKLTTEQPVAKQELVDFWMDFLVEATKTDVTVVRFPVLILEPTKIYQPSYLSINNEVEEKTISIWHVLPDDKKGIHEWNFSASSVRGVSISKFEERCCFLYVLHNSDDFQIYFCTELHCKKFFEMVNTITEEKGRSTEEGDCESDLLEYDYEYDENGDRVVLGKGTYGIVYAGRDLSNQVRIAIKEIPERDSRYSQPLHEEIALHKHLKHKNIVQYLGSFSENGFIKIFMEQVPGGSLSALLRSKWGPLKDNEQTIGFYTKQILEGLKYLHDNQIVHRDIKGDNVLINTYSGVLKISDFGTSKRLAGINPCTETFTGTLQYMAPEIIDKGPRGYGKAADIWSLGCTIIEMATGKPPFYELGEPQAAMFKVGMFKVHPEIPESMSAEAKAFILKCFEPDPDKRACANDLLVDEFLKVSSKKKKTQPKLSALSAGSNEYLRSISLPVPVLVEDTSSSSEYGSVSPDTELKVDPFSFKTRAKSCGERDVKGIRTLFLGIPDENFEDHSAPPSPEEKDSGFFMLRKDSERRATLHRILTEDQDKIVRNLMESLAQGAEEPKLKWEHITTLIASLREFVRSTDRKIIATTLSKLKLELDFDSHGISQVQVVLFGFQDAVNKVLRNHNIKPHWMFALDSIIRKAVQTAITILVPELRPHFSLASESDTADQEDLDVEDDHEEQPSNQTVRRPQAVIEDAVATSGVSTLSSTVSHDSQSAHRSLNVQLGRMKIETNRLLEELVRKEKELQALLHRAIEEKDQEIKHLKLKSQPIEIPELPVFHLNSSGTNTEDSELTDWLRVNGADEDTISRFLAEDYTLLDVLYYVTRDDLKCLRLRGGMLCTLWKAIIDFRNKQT
Outline: as §1

NEK2 = NEK2 (Homo sapiens, UniProt P51955); details: duplicate measurements, Km ATP
Sequence of NEK2 (P51955 whole entry): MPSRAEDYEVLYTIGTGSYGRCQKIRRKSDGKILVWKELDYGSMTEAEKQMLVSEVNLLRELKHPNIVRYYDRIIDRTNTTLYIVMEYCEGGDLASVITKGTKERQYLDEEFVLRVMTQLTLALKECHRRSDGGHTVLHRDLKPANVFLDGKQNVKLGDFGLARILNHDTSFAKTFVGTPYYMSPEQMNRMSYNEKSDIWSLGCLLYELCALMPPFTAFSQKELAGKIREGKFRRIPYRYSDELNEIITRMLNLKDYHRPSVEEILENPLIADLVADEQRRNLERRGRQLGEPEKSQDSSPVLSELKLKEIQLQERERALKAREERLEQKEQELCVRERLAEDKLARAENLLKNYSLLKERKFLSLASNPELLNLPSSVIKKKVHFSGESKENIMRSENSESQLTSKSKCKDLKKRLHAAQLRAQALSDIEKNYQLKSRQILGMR
Outline: as §1

ROCK2 = ROCK2 (Homo sapiens, UniProt O75116); details: duplicate measurements, Km ATP; read-out: % Enzyme Activity (relative to DMSO controls) / TP-0005801 (0.3µM) / Data 1
Outline: as §1

CDK14/cyclin Y (PFTK1) = CDK14/cyclin Y (PFTK1) (Homo sapiens, UniProt O94921); details: duplicate measurements, Km ATP
Outline: as §1

SNRK = SNRK (Homo sapiens, UniProt Q9NRH2); details: duplicate measurements, Km ATP
Sequence of SNRK (Q9NRH2 whole entry): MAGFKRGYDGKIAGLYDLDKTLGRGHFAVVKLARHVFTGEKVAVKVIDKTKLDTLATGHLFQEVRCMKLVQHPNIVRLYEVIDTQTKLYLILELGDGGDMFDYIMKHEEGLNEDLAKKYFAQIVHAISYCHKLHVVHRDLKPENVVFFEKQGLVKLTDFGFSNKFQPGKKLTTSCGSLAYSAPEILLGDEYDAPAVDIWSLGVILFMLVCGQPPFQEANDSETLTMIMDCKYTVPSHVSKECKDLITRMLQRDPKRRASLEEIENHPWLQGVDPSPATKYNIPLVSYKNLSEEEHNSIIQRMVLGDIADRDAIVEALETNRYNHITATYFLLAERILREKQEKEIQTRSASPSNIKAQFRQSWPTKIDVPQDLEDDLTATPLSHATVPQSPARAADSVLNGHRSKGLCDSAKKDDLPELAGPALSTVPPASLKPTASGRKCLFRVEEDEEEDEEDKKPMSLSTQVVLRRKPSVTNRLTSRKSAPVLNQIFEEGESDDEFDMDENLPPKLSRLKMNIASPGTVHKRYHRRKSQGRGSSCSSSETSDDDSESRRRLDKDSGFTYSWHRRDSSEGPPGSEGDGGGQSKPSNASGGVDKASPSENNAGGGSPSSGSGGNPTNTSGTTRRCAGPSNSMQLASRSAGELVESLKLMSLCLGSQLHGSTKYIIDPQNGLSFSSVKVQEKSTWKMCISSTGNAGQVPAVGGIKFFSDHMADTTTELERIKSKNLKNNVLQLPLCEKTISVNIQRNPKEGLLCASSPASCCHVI
Outline: as §1

LATS2 = LATS2 (Homo sapiens, UniProt Q9NRM7); details: duplicate measurements, Km ATP
Outline: as §1

PAK6 = PAK6 (Homo sapiens, UniProt Q9NQU5); details: duplicate measurements, Km ATP
Sequence of PAK6 (Q9NQU5 whole entry): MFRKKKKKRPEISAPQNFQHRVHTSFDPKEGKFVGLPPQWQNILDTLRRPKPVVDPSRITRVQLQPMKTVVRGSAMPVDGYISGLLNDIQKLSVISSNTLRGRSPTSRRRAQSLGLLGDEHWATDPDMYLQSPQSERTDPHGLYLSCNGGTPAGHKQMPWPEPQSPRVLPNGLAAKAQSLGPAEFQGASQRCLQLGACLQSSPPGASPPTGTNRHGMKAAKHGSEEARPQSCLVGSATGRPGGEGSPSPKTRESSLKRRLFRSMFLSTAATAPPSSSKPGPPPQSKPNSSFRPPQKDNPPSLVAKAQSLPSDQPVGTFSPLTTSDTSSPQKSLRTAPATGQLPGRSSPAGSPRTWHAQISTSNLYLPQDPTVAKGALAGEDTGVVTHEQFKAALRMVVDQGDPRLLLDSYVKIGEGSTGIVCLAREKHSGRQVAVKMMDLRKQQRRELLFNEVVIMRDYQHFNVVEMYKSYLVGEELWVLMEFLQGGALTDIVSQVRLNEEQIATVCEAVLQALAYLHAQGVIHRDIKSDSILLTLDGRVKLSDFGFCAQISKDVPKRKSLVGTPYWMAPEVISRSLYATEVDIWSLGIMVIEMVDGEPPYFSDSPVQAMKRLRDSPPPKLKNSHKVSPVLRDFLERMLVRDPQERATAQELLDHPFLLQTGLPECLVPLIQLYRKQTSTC
Outline: as §1

SGK3/SGKL = SGK3/SGKL (Homo sapiens, UniProt Q96BR1); details: duplicate measurements, Km ATP
Sequence of SGK3/SGKL (Q96BR1 whole entry): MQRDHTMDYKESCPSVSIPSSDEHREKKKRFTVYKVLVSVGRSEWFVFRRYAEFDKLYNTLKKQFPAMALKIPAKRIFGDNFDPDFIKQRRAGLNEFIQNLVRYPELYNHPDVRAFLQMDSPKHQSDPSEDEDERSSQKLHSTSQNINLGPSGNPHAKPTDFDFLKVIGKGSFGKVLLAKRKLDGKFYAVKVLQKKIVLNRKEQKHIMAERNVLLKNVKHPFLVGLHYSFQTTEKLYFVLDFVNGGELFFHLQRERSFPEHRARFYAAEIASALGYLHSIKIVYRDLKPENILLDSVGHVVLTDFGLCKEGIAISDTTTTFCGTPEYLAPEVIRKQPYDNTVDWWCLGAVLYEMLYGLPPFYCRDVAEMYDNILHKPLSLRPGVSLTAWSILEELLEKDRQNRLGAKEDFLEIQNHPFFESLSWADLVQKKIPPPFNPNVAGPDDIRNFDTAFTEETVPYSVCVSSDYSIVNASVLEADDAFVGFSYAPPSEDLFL
Outline: as §1

ALK = ALK (Homo sapiens, UniProt Q9UM73); details: duplicate measurements, Km ATP
Outline: as §1

ARAF = molecular target: T1, ARAF (Homo sapiens, UniProt P10398); details: duplicate measurements, Km ATP
T1 sequence (P10398 1-606): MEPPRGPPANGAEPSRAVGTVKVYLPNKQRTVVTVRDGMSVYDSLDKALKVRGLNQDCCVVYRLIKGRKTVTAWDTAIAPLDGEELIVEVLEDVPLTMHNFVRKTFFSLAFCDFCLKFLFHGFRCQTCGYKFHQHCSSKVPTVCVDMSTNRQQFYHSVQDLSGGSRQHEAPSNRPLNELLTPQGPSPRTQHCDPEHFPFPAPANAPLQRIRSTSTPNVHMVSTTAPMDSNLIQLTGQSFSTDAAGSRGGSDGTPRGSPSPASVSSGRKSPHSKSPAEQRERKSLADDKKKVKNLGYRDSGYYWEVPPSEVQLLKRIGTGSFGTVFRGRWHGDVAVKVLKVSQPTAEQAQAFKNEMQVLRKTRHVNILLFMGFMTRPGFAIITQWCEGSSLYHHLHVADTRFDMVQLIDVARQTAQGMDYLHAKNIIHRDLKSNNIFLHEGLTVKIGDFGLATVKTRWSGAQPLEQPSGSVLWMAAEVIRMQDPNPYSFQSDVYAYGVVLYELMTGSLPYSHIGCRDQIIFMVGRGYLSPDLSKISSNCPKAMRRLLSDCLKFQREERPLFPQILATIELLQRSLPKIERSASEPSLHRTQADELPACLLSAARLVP
Outline: as §1

[1] = read-out: % Enzyme Activity (relative to DMSO controls) / TP-0005801 (0.3µM) / Data 1
[2] = read-out: % Enzyme Activity (relative to DMSO controls) / TP-0005801 (0.3µM) / Data 2

Compound `COc1cc(N2CCN(C)CC2)c(C)cc1Nc1ncc(Br)c(Nc2cccnc2N(C)C)n1` [TP-5801] has a remaining activity at 0.3 µM (CDK6/cyclin D3; [1]) of 103%, a remaining activity at 0.3 µM (CDK6/cyclin D3; [2]) of 101% and a remaining activity at 0.3 µM (CDK2/cyclin E2; [1]) of 102%. For the same compound, the remaining activity at 0.3 µM (CDK2/cyclin E2; [2]) was 101%, the remaining activity at 0.3 µM (CAMK2g; [1]) was 157% and the remaining activity at 0.3 µM (CAMK2g; [2]) was 153%. For the same compound, the remaining activity at 0.3 µM (MINK/MINK1; [1]) was 95.6%, the remaining activity at 0.3 µM (MINK/MINK1; [2]) was 89.2% and the remaining activity at 0.3 µM (DAPK1; [1]) was 102%. It also gave a remaining activity at 0.3 µM (DAPK1; [2]) of 101%, a remaining activity at 0.3 µM (IGF1R; [1]) of 16.7% and a remaining activity at 0.3 µM (IGF1R; [2]) of 16.2%. It also gave a remaining activity at 0.3 µM (ASK1/MAP3K5; [1]) of 99%, a remaining activity at 0.3 µM (ASK1/MAP3K5; [2]) of 98.6% and a remaining activity at 0.3 µM (NEK2; [1]) of 60.3%. For the same compound, the remaining activity at 0.3 µM (NEK2; [2]) was 55.8%, the remaining activity at 0.3 µM (ROCK2) was 103% and the remaining activity at 0.3 µM (CDK14/cyclin Y (PFTK1); [1]) was 91.8%. It also gave a remaining activity at 0.3 µM (CDK14/cyclin Y (PFTK1); [2]) of 90.2%, a remaining activity at 0.3 µM (SNRK; [1]) of 98.8% and a remaining activity at 0.3 µM (SNRK; [2]) of 98.6%. For the same compound, the remaining activity at 0.3 µM (LATS2; [1]) was 95.8%, the remaining activity at 0.3 µM (LATS2; [2]) was 92.4% and the remaining activity at 0.3 µM (PAK6; [1]) was 107%. The remaining activity at 0.3 µM (PAK6; [2]) was 105%, the remaining activity at 0.3 µM (SGK3/SGKL; [1]) was 108% and the remaining activity at 0.3 µM (SGK3/SGKL; [2]) was 105%. The remaining activity at 0.3 µM (ALK; [1]) was 3.64%, the remaining activity at 0.3 µM (ALK; [2]) was 3.52% and the remaining activity at 0.3 µM (ARAF; [1]) was 88.1%. For the same compound, the remaining activity at 0.3 µM (ARAF; [2]) was 82.3%.
